One may read the Ki as a measure of affinity in units of concentration, obtained from inhibition or displacement.

Structures are written as SMILES.

One experiment concerns MX-1 xenograft model. Briefly: Xenograft combination study with Cisplatin. The class given is in vivo, mice. The note with it: MX-1 breast xenograft model; comparable doses of cisplatin or PARP inhibitor alone. The procedure: Female athymic nu/nu mice (8-10 weeks old) were used for all in vivo xenograft studies. Mice were quarantined for at least 1 week before experimental manipulation. Exponentially growing cells or in vivo passaged tumor fragments were implanted subcutaneously at the right flank of nude mice. Tumor-bearing mice were randomized according to tumor size into 6-8 mice/group in each study (average tumor size ˜150 mm^3). Mice were observed daily for survival and tumors were measured twice weekly by caliper in two dimensions and converted to tumor mass using the formula for a prolate ellipsoid (V=0.5 a×b^2), where a and b are the long and short diameters of the tumor, respectively, and assuming unit density (1 mm^3=1 mg).
Combination study: PARP inhibitory compounds described herein in vehicle 10% DMAc/6% Solutal/84% PBS, were either administered orally, once daily for 5 days with Temozolomide (17 mg/kg or 34 mg/kg, p.o., qd×5, 30 min after each dose of compounds) in SW620 xenograft model or dosed orally, once daily for 8 days with 6 mg/kg Cisplatin (once by ip on day 3, 30 min after first dose of PARP inhibitors) in MX-1 xenograft model. Mice were observed and individual tumor was measured for 30 more days after the last dosing of PARP inhibitory compounds.

A further experiment relates to BRCA2-deficient tumors. Conditions: cited from earlier work.
The subject of another experiment is CAPAN-1 cells. The note with it: CAPAN-1 cells in DMEM with FCS (20% v/v); cited from earlier work.
The next experiment has as its target PARP-1 (Homo sapiens, UniProt P09874). The note with it: PARP-1 inhibitor; cited from earlier work.
For experiment [1], the system named is BRCA2-deficient cell line V-C8. Conditions: V-C8 compared with the BRCA2 wild type control; cited from earlier work.

Sequence of PARP-1 (P09874 whole entry, species assumed): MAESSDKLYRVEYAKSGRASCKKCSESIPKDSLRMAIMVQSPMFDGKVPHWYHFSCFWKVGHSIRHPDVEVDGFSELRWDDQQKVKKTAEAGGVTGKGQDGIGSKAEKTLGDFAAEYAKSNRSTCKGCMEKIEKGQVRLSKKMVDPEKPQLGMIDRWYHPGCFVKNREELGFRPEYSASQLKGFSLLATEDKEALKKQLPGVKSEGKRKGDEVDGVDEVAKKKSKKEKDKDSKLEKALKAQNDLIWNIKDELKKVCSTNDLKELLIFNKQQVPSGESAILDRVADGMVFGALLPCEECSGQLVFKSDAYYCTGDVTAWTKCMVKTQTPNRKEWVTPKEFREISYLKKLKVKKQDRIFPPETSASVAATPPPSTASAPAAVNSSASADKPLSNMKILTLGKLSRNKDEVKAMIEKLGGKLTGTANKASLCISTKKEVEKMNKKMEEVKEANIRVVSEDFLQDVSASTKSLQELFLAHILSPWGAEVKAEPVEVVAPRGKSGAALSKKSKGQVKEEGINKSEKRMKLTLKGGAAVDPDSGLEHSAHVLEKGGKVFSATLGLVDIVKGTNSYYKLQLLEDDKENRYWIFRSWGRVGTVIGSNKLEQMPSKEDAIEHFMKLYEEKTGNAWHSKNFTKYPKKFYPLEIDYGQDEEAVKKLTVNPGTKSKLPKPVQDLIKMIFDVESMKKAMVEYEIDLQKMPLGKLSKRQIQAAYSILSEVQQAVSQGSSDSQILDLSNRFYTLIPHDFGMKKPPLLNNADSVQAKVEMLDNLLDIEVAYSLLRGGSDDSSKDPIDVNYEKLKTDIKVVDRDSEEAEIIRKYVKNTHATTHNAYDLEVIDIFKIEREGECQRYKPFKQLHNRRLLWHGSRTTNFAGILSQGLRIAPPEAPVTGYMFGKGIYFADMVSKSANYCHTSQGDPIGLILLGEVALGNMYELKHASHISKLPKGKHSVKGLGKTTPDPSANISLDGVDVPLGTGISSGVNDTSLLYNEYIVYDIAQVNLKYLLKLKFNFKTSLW

Turning to `N.N.[Cl][Pt][Cl]` [cisplatin], the “tumor inhibition, agent alone” value in the experiment on MX-1 xenograft model is reported as “only small to modest tumor inhibition”. Take `O=C1CCC(=O)N1c1cc(Cc2n[nH]c(=O)c3ccccc23)ccc1F` [KU0058684]: the “in vivo efficacy, tumor growth” value in the experiment on BRCA2-deficient tumors is “shown in vivo efficacy in blocking the growth of BRCA2-deficient tumors”. For the same molecule, the “sensitivity in clonogenic survival assay” value with CAPAN-1 cells is listed as “showing sensitivity to PARP inhibition”. Consider `Cc1nc2c(O)cccc2c(=O)[nH]1` [NU1025], for which the Ki on PARP-1 is 50 nM. For the same molecule, the “sensitivity in clonogenic survival assay” value in experiment [1] is given as “exhibited sensitivity”.

As for `CN(C)Cc1ccc(-c2nc3cccc4c3n2CCNC4=O)cc1` [AG14361], the inhibition constant Ki on PARP-1 is 5 nM. Moreover, in experiment [1], the “sensitivity in clonogenic survival assay” value is “exhibited sensitivity”.
